The values below come from US20250188057A1, “NON-AROMATIC CYCLIC-PYRIMIDINE ANALOGS AS GLUCOSYLCERAMIDE SYNTHASE INHIBITORS” (Merck Sharp & Dohme LLC, priority 2022, published 2025).

Structures are written as SMILES.

Chain of glucosylceramide synthase (GCS) (Q16739 whole entry): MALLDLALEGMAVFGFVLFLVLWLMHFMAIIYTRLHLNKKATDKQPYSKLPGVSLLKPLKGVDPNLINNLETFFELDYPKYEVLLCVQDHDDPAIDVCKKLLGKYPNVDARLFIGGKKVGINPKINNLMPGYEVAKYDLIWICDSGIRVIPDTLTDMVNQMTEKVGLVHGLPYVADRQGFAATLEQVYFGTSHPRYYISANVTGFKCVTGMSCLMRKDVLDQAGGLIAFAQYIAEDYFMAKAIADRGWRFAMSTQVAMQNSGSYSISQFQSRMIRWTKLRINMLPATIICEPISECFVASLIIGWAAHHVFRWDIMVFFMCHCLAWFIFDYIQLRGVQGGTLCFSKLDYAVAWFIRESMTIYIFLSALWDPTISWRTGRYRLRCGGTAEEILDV

The target of the experiment is glucosylceramide synthase (GCS) (Homo sapiens (Human), UniProt Q16739). Description: UDP-Glo glucosylceramide synthase biochemical assay. The settings on record: endogenous GCS in Golgi preparations isolated from human A375 malignant melanoma skin cells; UDP detection by luminescence. From the text:
A UDP-Glo™ glucosylceramide synthase biochemical assay was utilized to evaluate the effect of test compounds on the activity of endogenous levels of GCS enzyme contained within Golgi preparations isolated from human A375 malignant melanoma skin cells. The UDP-Glo™ glucosylceramide synthase assay uses UDP-Glucose as a nucleotide-glycosyl donor and ceramide as substrate acceptor molecules. In the reaction, glucosylceramide synthase (GCS) transfers glucose from UDP-Glucose to ceramide. Glucosylceramide and UDP are released as products.
Using Promega's UDP-Glo™ Glycosyltransferase assay kit (Promega Corporation, Madison, WI, USA (Promega)), GCS activity was indirectly measured by detecting the amount of UDP produced. An aliquot of GCS enzyme (1.5 μg crude golgi preparation, total protein) and titrated test compound were aliquoted to each well and incubated for 30 minutes at room temperature. […] An equivalent volume of substrate mixture was then added to each well. Following a 20 h incubation at room temperature to allow for GCS turnover of substrate, an equal volume of UDP detection reagent (Promega) was added to each well and incubated for an additional 75 minutes at room temperature to simultaneously convert the accumulated UDP product into ATP and generate light in a luciferase reaction. The generated light was detected using a luminometer. […] luminescence values (RLUs) were normalized to mean “min” and “max” effects, as determined on each plate. “Min” was defined as the mean of the values of the wells treated with vehicle (DMSO) and which represent 0% inhibition; “max” was defined as the mean of the values of the wells treated with a reference inhibitor and which represent the 100% effect. Values for % Emax and EC50 were determined by best-fitting the normalized data to a curve in Activity Base along a four-parameter logistic nonlinear regression (4PL) model (based on the Levenberg-Marquardt algorithm and defined by the equation below): […]
where: n is 4PMin (bottom of the curve); m is 4PMax (top of the curve); i is IP (inflection point of curve); and p is slope. See Levenberg, K., “A Method for the Solution of Certain Problems in Least Squares”, Quart. Appl. Math. 2, (1944), pp 164-168 and Marquardt, D., “An Algorithm for Least Squares Estimation on Nonlinear Parameters”, SIAM J. Appl. Math 11, (1963) pp 431-441.
As for `Cc1nc2c(s1)CCCC2Nc1nc(C2CC2)nc(Cl)c1CO` (single isomer, unassigned) [Compound 110, (4-chloro-2-cyclopropyl-6-((2-methyl-4,5,6,7-tetrahydrobenzo[d]thiazol-4-yl)amino)pyrimidin-5-yl)methanol], the IC50 stood at 0.266 µM.

For the molecule `OCc1cnc(C2CC2)nc1OC[C@H]1CCN(c2ccc(C(F)(F)F)nc2)C1` [Compound 1, (S)-(2-cyclopropyl-4-((1-(6-(trifluoromethyl)pyridin-3-yl)pyrrolidin-3-yl)methoxy)pyrimidin-5-yl)methanol], inhibition was half-maximal at 0.579 µM (IC50). For `OCc1cnc(C2CC2)nc1OC[C@@H]1CCN(c2ccc(C(F)(F)F)nc2)C1` [Compound 2, (R)-(2-cyclopropyl-4-((1-(6-(trifluoromethyl)pyridin-3-yl)pyrrolidin-3-yl)methoxy)pyrimidin-5-yl)methanol], the IC50 came to 0.568 µM. As for `OCc1cnc(C2CC2)nc1OC[C@@H]1CN(c2ccc(C(F)(F)F)nc2)CCO1` [Compound 3, (S)-(2-cyclopropyl-4-((4-(6-(trifluoromethyl)pyridin-3-y)morpholin-2-yl)methoxy)pyrimidin-5-yl)methanol], the figure is 2.32 µM.

The molecule `OCc1cnc(C2CC2)nc1OC[C@H]1CN(c2ccc(C(F)(F)F)nc2)CCO1` [Compound 4, (R)-(2-cyclopropyl-4-((4-(6-(trifluoromethyl)pyridin-3-yl)morpholin-2-yl)methoxy)pyrimidin-5-yl)methanol] gave an IC50 of 1.38 µM. Then `OCc1cnc(C2CC2)nc1OCC1CCN(c2ccc(C(F)(F)F)nc2)CC1` [Compound 5, (2-cyclopropyl-4-((1-(6-(trifluoromethyl)pyridin-3-yl)piperidin-4-yl)methoxy)pyrimidin-5-yl)methanol], with 3.41 µM. On to `OCc1cnc(C2CC2)nc1OC1CCN(c2ccc(C(F)(F)F)nc2)CC1` [Compound 6, (2-cyclopropyl-4-((1-(6-(trifluoromethyl)pyridin-3-yl)piperidin-4-yl)oxy)pyrimidin-5-yl)methanol], for which the IC50 was found to be 1.44 µM. As for `N#Cc1cnc(C2CC2)nc1OC[C@H]1CCN(c2ccc(-n3cccn3)cc2)C1` [Compound 7, (S)-4-((1-(4-(1H-pyrazol-1-yl)phenyl)pyrrolidin-3-yl)methoxy)-2-cyclopropylpyrimidine-5-carbonitrile], the figure is 0.0043 µM; as for `N#Cc1cnc(C2CC2)nc1OC[C@H]1CCN(c2cnc(-c3ccccc3)o2)C1` [Compound 8, (S)-2-cyclopropyl-4-((1-(2-phenyloxazol-5-yl)pyrrolidin-3-yl)methoxy)pyrimidine-5-carbonitrile], 0.889 µM; as for `N#Cc1cnc(C2CC2)nc1OC[C@H]1CCN(c2cccc(-c3ncco3)c2)C1` [Compound 9, (S)-2-cyclopropyl-4-((1-(3-(oxazol-2-yl)phenyl)pyrrolidin-3-yl)methoxy)pyrimidine-5-carbonitrile], 0.826 µM. In the case of `N#Cc1cnc(C2CC2)nc1OC[C@H]1CCN(c2cccc(-c3nccs3)c2)C1` [Compound 10, (S)-2-cyclopropyl-4-((1-(3-(thiazol-2-yl)phenyl)pyrrolidin-3-yl)methoxy)pyrimidine-5-carbonitrile], inhibition was half-maximal at 0.249 µM (IC50). The molecule `N#Cc1cnc(C2CC2)nc1OC[C@H]1CCN(c2ccc(-c3ncco3)cc2)C1` [Compound 11, (S)-2-cyclopropyl-4-((1-(4-(oxazol-2-yl)phenyl)pyrrolidin-3-yl)methoxy)pyrimidine-5-carbonitrile] registered a concentration for half-maximal inhibition (IC50) of 0.035 µM. Consider `COc1cccc(N2CC[C@H](COc3nc(C4CC4)ncc3C#N)C2)n1` [Compound 12, (S)-2-cyclopropyl-4-((1-(6-methoxypyridin-2-yl)pyrrolidin-3-yl)methoxy)pyrimidine-5-carbonitrile], for which the IC50 amounted to 0.529 µM.

Turning to `Cc1nnc(-c2ccc(N3CC[C@H](COc4nc(C5CC5)ncc4C#N)C3)cc2)s1` [Compound 13, (S)-2-cyclopropyl-4-((1-(4-(5-methyl-1,3,4-thiadiazol-2-yl)phenyl)pyrrolidin-3-yl)methoxy)pyrimidine-5-carbonitrile], the IC50 turned out to be 0.08 µM.

As for `N#Cc1cnc(C2CC2)nc1OC[C@H]1CCN(c2sccc2C#N)C1` [Compound 14], inhibition was half-maximal at 0.141 µM (IC50). `Cc1nccc(-c2cccc(N3CC[C@H](COc4nc(C5CC5)ncc4C#N)C3)c2)n1` [Compound 15, (S)-2-cyclopropyl-4-((1-(3-(2-methylpyrimidin-4-yl)phenyl)pyrrolidin-3-yl)methoxy)pyrimidine-5-carbonitrile]: the IC50 turned out to be 0.816 µM. As for `N#Cc1cnc(C2CC2)nc1OC[C@H]1CCN(c2cccc(-n3cccn3)c2)C1` [Compound 16, (S)-4-((1-(3-(1H-pyrazol-1-yl)phenyl)pyrrolidin-3-yl)methoxy)-2-cyclopropylpyrimidine-5-carbonitrile], the figure is 0.357 µM; as for `Cc1cnc(N2CC[C@H](COc3nc(C4CC4)ncc3C#N)C2)c(C)c1` [Compound 17, (S)-2-cyclopropyl-4-((1-(3,5-dimethylpyridin-2-yl)pyrrolidin-3-yl)methoxy)pyrimidine-5-carbonitrile], 1.02 µM. Then `N#Cc1cnc(C2CC2)nc1OC[C@H]1CCN(c2ccc(-c3ccno3)cc2)C1` [Compound 18, (S)-2-cyclopropyl-4-((1-(4-(isoxazol-5-yl)phenyl)pyrrolidin-3-yl)methoxy)pyrimidine-5-carbonitrile], with 0.067 µM; and `N#Cc1cnc(C2CC2)nc1OC[C@H]1CCN(c2ccc(-c3ccon3)cc2)C1` [Compound 19, (S)-2-cyclopropyl-4-((1-(4-(isoxazol-3-yl)phenyl)pyrrolidin-3-yl)methoxy)pyrimidine-5-carbonitrile], with 0.037 µM; and `N#Cc1cnc(C2CC2)nc1OC[C@H]1CCN(c2cccc(-n3nccn3)c2)C1` [Compound 20, (S)-4-((1-(3-(2H-1,2,3-triazol-2-yl)phenyl)pyrrolidin-3-yl)methoxy)-2-cyclopropylpyrimidine-5-carbonitrile], with 0.354 µM. In the case of `N#Cc1cnc(C2CC2)nc1OC[C@H]1CCN(c2cnc3ccsc3c2)C1` [Compound 21, (S)-2-cyclopropyl-4-((1-(thieno[3,2-b]pyridin-6-yl)pyrrolidin-3-yl)methoxy)pyrimidine-5-carbonitrile], the IC50 is 1.3 µM.

`N#Cc1cnc(C2CC2)nc1OC[C@H]1CCN(c2ccc(-c3cnco3)cc2)C1` [Compound 22, (S)-2-cyclopropyl-4-((1-(4-(oxazol-5-yl)phenyl)pyrrolidin-3-yl)methoxy)pyrimidine-5-carbonitrile] came in with an IC50 of 0.026 µM. `N#Cc1cnc(C2CC2)nc1OC[C@H]1CCN(c2nnc(C3CC3)s2)C1` [Compound 23, (S)-2-cyclopropyl-4-((1-(5-cyclopropyl-1,3,4-thiadiazol-2-yl)pyrrolidin-3-yl)methoxy)pyrimidine-5-carbonitrile] came in with an IC50 of 3.66 µM. For the molecule `N#Cc1cnc(C2CC2)nc1OC[C@H]1CCN(c2ccc(C3CC3)nc2)C1` [Compound 24, (S)-2-cyclopropyl-4-((1-(6-cyclopropylpyridin-3-yl)pyrrolidin-3-yl)methoxy)pyrimidine-5-carbonitrile], 0.377 µM corresponded to half-maximal inhibition (IC50). Molecule `CCOc1ccc(N2CC[C@H](COc3nc(C4CC4)ncc3C#N)C2)cn1` [Compound 25, (S)-2-cyclopropyl-4-((1-(6-ethoxypyridin-3-yl)pyrrolidin-3-yl)methoxy)pyrimidine-5-carbonitrile] returned an IC50 of 0.231 µM. As for `N#Cc1cnc(C2CC2)nc1OC[C@H]1CCN(c2ncccc2C(F)F)C1` [Compound 26, (S)-2-cyclopropyl-4-((1-(3-(difluoromethyl)pyridin-2-yl)pyrrolidin-3-yl)methoxy)pyrimidine-5-carbonitrile], the figure is 4.67 µM; as for `N#Cc1cnc(C2CC2)nc1OC[C@H]1CCN(c2ccnc(C3CCC3)c2)C1` [Compound 27, (S)-4-((1-(2-cyclobutylpyridin-4-yl)pyrrolidin-3-yl)methoxy)-2-cyclopropylpyrimidine-5-carbonitrile], 3.62 µM; as for `COc1ccc(C)nc1N1CC[C@H](COc2nc(C3CC3)ncc2C#N)C1` [Compound 28, (S)-2-cyclopropyl-4-((1-(3-methoxy-6-methylpyridin-2-yl)pyrrolidin-3-yl)methoxy)pyrimidine-5-carbonitrile], 4.52 µM.

In turn, `N#Cc1cnc(C2CC2)nc1OC[C@H]1CCN(c2ccc(OC(F)F)cn2)C1` [Compound 29, (S)-2-cyclopropyl-4-((1-(5-(difluoromethoxy)pyridin-2-yl)pyrrolidin-3-yl)methoxy)pyrimidine-5-carbonitrile] displayed an IC50 of 0.148 µM.

What is called IC50 is the point on the concentration scale where inhibition reaches its midpoint. A higher IC50 goes with a need for much substance.
